One block for each compound: values may come before it.
Tested on: 349418-098-R-PDC complex spheroid viability
Experiment: Anticancer human tumor 349418-098-R-PDC patient-derived lung adenocarcinoma cell line growth inhibition [RAS]
Conditions: for IC50: curve of first compound; for viability, T/C: stronger effect = lower value
Source text: RAS pathway inhibitors in Combinations in Complex Spheroids
A high-throughput screen of multi-cell type tumor spheroids was designed to identify active combinations of RAS pathway inhibitors and targeted small molecules. Complex spheroids include a stromal component modeled by human endothelial cells (HUVEC) and fibroblasts modeled by human mesenchymal stem cells (MSCs). The concentration ranges selected for each drug and investigational agent were based upon clinically achievable concentrations if the clinical Cmax of the agent was known.
Compounds. The drugs and investigational agents: abemaciclib (NSC768073), cobimetinib (NSC768068), divarasib (GDC6063, NSC841802), docetaxel (NSC628503), GDC-1971 (RLY-1971, NSC841576), gemcitabine (NSC613327), inavolisib (NSC800729), ipatasertib (NSC767898), KB-0742 (NSC834161), MRTX-1133 (NSC836407), osimertinib (NSC779217), RMC-4630 (NSC839698), RMC-6236 (NSC851965), RMC-6291 (NSC852671), Ro-3306 (NSC812927), sapanisertib (NSC764658), SN-38 (NSC673596), staurosporine (NSC755774), SY5609 (NSC837396), and tovorafenib (DAY101, NSC766906), were obtained from the National Cancer Institute (NCI) Developmental Therapeutics Program Chemical Repository. The FDA-approved anticancer drug set is available from the NCI Developmental Therapeutics Program. […] The stock solutions were prepared in dimethyl sulfoxide (DMSO, Sigma-Aldrich, St. Louis, MO, cat. D2650) at 800-fold the tested concentration and stored at -70 degrees C prior to their use. All drugs and investigational agents were tested over a range starting from a high concentration at or near the clinical Cmax and decreasing in half-log increments. If the clinical Cmax for an agent had not been determined, the highest concentration tested was 10 microM.
Cell Culture. All cells were maintained in an incubator at 37 degrees C and 5% CO2 with 95% humidity. The PDC lines were cultured according to standard operating procedures established by the NCI PDMR. All PDCs were thawed and cultured in Matrigel-coated flasks prepared with a working solution of 1X Ham's F-12 nutrient mix, without supplementation (Invitrogen, Waltham, MA, cat. 11765054), 100 U/mL penicillin-streptomycin (Invitrogen, cat. 15140122), and 2.5% Matrigel (Corning Inc., Corning, NY, cat. 354248) for the first three passages. The 362531-283-R-J2-PDC and 782815-120-R-J1-PDC lines were cultured in 6C/Colon 1B media, which includes advanced DMEM/F-12 (Thermo Fisher Scientific, cat. 12634028), 10 mM HEPES (Thermo Fisher Scientific, cat. 15630080), 1X GlutaMAX supplement (Thermo Fisher Scientific, cat. 35050061), 0.1 mg/mL primocin (InvivoGen, San Diego, CA, cat. ant-pm-2), 10% defined fetal bovine serum, heat inactivated (HyClone Laboratories Inc., Logan, UT, cat. SH30070.03HI), 50% L-WRN conditioned media (ATCC, cat. CRL-3276), 1.25 mM N-Acetyl-L-cysteine (Sigma-Aldrich, cat. A9165), 10 mM nicotinamide (Sigma-Aldrich, cat. N0636), 1X B-27 supplement (Thermo Fisher Scientific, cat. 17504044), 1X N-2 supplement (Thermo Fisher Scientific, cat. 17502048), 50 ng/mL human EGF (Thermo Fisher Scientific, cat. PHG0311), and 10 microM Y-27632 dihydrochloride (Tocris Bioscience, cat. 1254). The K12877-001-R-J1-PDC line was cultured in 6I media, which includes all 6C/Colon 1B media plus 10 ng/mL human FGF-10 (PeproTech, cat. 100-26), 1 ng/mL human FGF-2 (PeproTech, cat. 100-18B), 1 µM prostaglandin E2 (Tocris Bioscience, cat. 2296), […] hydrocortisone (Sigma-Aldrich, cat. H4001), and […] bovine insulin (Sigma-Aldrich, cat. I6634). The K86415-001-R-J1-PDC line was cultured in 6D media, which includes all 6C/Colon 1B media components minus the L-WRN conditioned media. The 485176-168-R4-J1-PDC was cultured in PANC media, which includes all 6C/Colon 1B media plus 100 ng/mL human FGF-10 (PeproTech, cat. 100-26), 500 nM SB-431542 (Selleckchem, cat. S1067), and 10 nM gastrin (Tocris Bioscience, cat. 3006). […]

[1] = second compound 0.0316 µM, first compound 0.0316 µM
[2] = second compound 0.0316 µM, first compound 0.1 µM
[3] = second compound 0.0316 µM, first compound 0.316 µM
[4] = second compound 0.0316 µM, first compound 1 µM
[5] = second compound 0.0316 µM, first compound 3.16 µM
[6] = second compound 0.0316 µM, first compound 10 µM
[7] = second compound 0.1 µM, first compound 0.0316 µM
[8] = second compound 0.1 µM, first compound 0.1 µM
[9] = second compound 0.1 µM, first compound 0.316 µM
[10] = second compound 0.1 µM, first compound 1 µM
[11] = second compound 0.1 µM, first compound 3.16 µM
[12] = second compound 0.1 µM, first compound 10 µM
[13] = second compound 0.316 µM, first compound 0.0316 µM
[14] = second compound 0.316 µM, first compound 0.1 µM
[15] = second compound 0.316 µM, first compound 0.316 µM
[16] = second compound 0.316 µM, first compound 1 µM
[17] = second compound 0.316 µM, first compound 3.16 µM
[18] = second compound 0.316 µM, first compound 10 µM
[19] = second compound 1 µM, first compound 0.0316 µM
[20] = second compound 1 µM, first compound 0.1 µM
[21] = second compound 1 µM, first compound 0.316 µM
[22] = second compound 1 µM, first compound 1 µM
[23] = second compound 1 µM, first compound 3.16 µM
[24] = second compound 1 µM, first compound 10 µM
[25] = second compound 3.16 µM, first compound 0.0316 µM
[26] = second compound 3.16 µM, first compound 0.1 µM
[27] = second compound 3.16 µM, first compound 0.316 µM
[28] = second compound 3.16 µM, first compound 1 µM
[29] = second compound 3.16 µM, first compound 3.16 µM
[30] = second compound 3.16 µM, first compound 10 µM
[31] = second compound 10 µM, first compound 0.0316 µM
[32] = second compound 10 µM, first compound 0.1 µM
[33] = second compound 10 µM, first compound 0.316 µM
[34] = second compound 10 µM, first compound 1 µM
[35] = second compound 10 µM, first compound 3.16 µM
[36] = second compound 10 µM, first compound 10 µM
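Further: spheroids exposed to compound for seven days before viability readout.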

IC50 (second compound 0.0316 µM): 66 nM | IC50 (second compound 0.1 µM): 80.9 nM | IC50 (second compound 0.316 µM): 86.3 nM | IC50 (second compound 1 µM): 52.8 nM | IC50 (second compound 3.16 µM): 79.3 nM | IC50 (second compound 10 µM): < 31.6 nM
SMILES: CC1(O)CCCC1n1c(=O)c(C(F)F)cc2cnc(NC3CCN(S(C)(=O)=O)CC3)nc21 (stereo unspecified) + C#Cc1c(F)ccc2cc(O)cc(-c3ncc4c(N5CC6CCC(C5)N6)nc(OCC56CCCN5CC(F)C6)nc4c3F)c12
viability, T/C [1]: 62.5% | viability, T/C [2]: 43.8% | viability, T/C [3]: 23% | viability, T/C [4]: 27.6% | viability, T/C [5]: 23.2% | viability, T/C [6]: 3.27% | viability, T/C [7]: 83.5% | viability, T/C [8]: 41.3% | viability, T/C [9]: 23.1% | viability, T/C [10]: 16.2% | viability, T/C [11]: 18.7% | viability, T/C [12]: 3.67% | viability, T/C [13]: 84.5% | viability, T/C [14]: 41.7% | viability, T/C [15]: 25.2% | viability, T/C [16]: 25.8% | viability, T/C [17]: 20.1% | viability, T/C [18]: 3.12% | viability, T/C [19]: 60.5% | viability, T/C [20]: 35.9% | viability, T/C [21]: 28.9% | viability, T/C [22]: 26.5% | viability, T/C [23]: 19.9% | viability, T/C [24]: 4.34% | viability, T/C [25]: 67.6% | viability, T/C [26]: 41.9% | viability, T/C [27]: 29.9% | viability, T/C [28]: 25% | viability, T/C [29]: 25.5% | viability, T/C [30]: 4.16% | viability, T/C [31]: 49.8% | viability, T/C [32]: 12.9% | viability, T/C [33]: 16.3% | viability, T/C [34]: 14.4% | viability, T/C [35]: 9.5% | viability, T/C [36]: 1.44%

IC50 (second compound 0.0316 µM): 736 nM | IC50 (second compound 0.1 µM): 810 nM | IC50 (second compound 0.316 µM): 903 nM | IC50 (second compound 1 µM): 875 nM | IC50 (second compound 3.16 µM): 714 nM | IC50 (second compound 10 µM): < 31.6 nM
SMILES: CCC(CC)c1cc(NC2CCC(N)C2)n2nccc2n1 (stereo unspecified) + C#Cc1c(F)ccc2cc(O)cc(-c3ncc4c(N5CC6CCC(C5)N6)nc(OCC56CCCN5CC(F)C6)nc4c3F)c12
viability, T/C [1]: 91.3% | viability, T/C [2]: 106% | viability, T/C [3]: 76.1% | viability, T/C [4]: 41.9% | viability, T/C [5]: 3.06% | viability, T/C [6]: 2.85% | viability, T/C [7]: 84.2% | viability, T/C [8]: 107% | viability, T/C [9]: 84.5% | viability, T/C [10]: 42.6% | viability, T/C [11]: 2.89% | viability, T/C [12]: 2.86% | viability, T/C [13]: 91.3% | viability, T/C [14]: 112% | viability, T/C [15]: 106% | viability, T/C [16]: 44.8% | viability, T/C [17]: 4.03% | viability, T/C [18]: 2.72% | viability, T/C [19]: 75.8% | viability, T/C [20]: 85.6% | viability, T/C [21]: 67.2% | viability, T/C [22]: 48.9% | viability, T/C [23]: 3.08% | viability, T/C [24]: 3.26% | viability, T/C [25]: 75% | viability, T/C [26]: 97.5% | viability, T/C [27]: 83.2% | viability, T/C [28]: 36.1% | viability, T/C [29]: 3.69% | viability, T/C [30]: 3.11% | viability, T/C [31]: 52.5% | viability, T/C [32]: 44.7% | viability, T/C [33]: 42.7% | viability, T/C [34]: 20.4% | viability, T/C [35]: 1.26% | viability, T/C [36]: 0.7%

IC50 (second compound 0.0316 µM): 7.9 nM | IC50 (second compound 0.1 µM): 30.5 nM | IC50 (second compound 0.316 µM): 18.2 nM | IC50 (second compound 1 µM): 12.3 nM | IC50 (second compound 3.16 µM): 10.3 nM | IC50 (second compound 10 µM): < 3.16 nM
SMILES: CCN1CCN(Cc2ccc(Nc3ncc(F)c(-c4cc(F)c5nc(C)n(C(C)C)c5c4)n3)nc2)CC1 + C#Cc1c(F)ccc2cc(O)cc(-c3ncc4c(N5CC6CCC(C5)N6)nc(OCC56CCCN5CC(F)C6)nc4c3F)c12
viability, T/C (second compound 0.0316 µM, first compound 0.00316 µM): 66.8% | viability, T/C (second compound 0.0316 µM, first compound 0.01 µM): 38.2% | viability, T/C [1]: 41.9% | viability, T/C [2]: 25.9% | viability, T/C [3]: 18% | viability, T/C [4]: 16.3% | viability, T/C (second compound 0.1 µM, first compound 0.00316 µM): 76.2% | viability, T/C (second compound 0.1 µM, first compound 0.01 µM): 77.7% | viability, T/C [7]: 47.6% | viability, T/C [8]: 25.7% | viability, T/C [9]: 22% | viability, T/C [10]: 14.4% | viability, T/C (second compound 0.316 µM, first compound 0.00316 µM): 78.2% | viability, T/C (second compound 0.316 µM, first compound 0.01 µM): 59.9% | viability, T/C [13]: 40.8% | viability, T/C [14]: 28.9% | viability, T/C [15]: 24.4% | viability, T/C [16]: 16.2% | viability, T/C (second compound 1 µM, first compound 0.00316 µM): 79.4% | viability, T/C (second compound 1 µM, first compound 0.01 µM): 49.6% | viability, T/C [19]: 37.8% | viability, T/C [20]: 33.5% | viability, T/C [21]: 20.5% | viability, T/C [22]: 19.9% | viability, T/C (second compound 3.16 µM, first compound 0.00316 µM): 74.1% | viability, T/C (second compound 3.16 µM, first compound 0.01 µM): 51.3% | viability, T/C [25]: 32.8% | viability, T/C [26]: 29.1% | viability, T/C [27]: 30.4% | viability, T/C [28]: 16.6% | viability, T/C (second compound 10 µM, first compound 0.00316 µM): 26.7% | viability, T/C (second compound 10 µM, first compound 0.01 µM): 37.7% | viability, T/C [31]: 14.3% | viability, T/C [32]: 12.5% | viability, T/C [33]: 5.58% | viability, T/C [34]: 2.78%
